Literature values, collected in US20050148589A1, “Compositions of a cyclooxygenase-2 selective inhibitor and a neurotrophic factor-modulating agent for the treatment of central nervous system mediated disorders” (Pharmacia & Upjohn Company LLC, priority 2003, published 2005).

How the values were obtained:
[1] = tested on: animal models of cognitive decline, aging, neuroprotection, and spinal cord injury; conditions: pre-clinical studies
[2] = tested on: brain damage due to neuroexcitotoxins; conditions: in vivo
[3] = tested on: mRNA levels of various neurotrophic factors, including nerve growth factor (NGF), transforming growth factor (beta), and S100B in the central nervous system; conditions: treatment with Neotrofin

O=C(CCn1cnc2c(=O)[nH]cnc21)Nc1ccc(C(=O)[O-])cc1.[K+] [Leteprinim potassium]
restoration of function in animal models [1]: restores function in animal models of cognitive decline, aging, neuroprotection, and spinal cord injury
prevention of brain damage due to neuroexcitotoxins [2]: shown to prevent brain damage due to neuroexcitotoxins

O=C(CCn1cnc2c(=O)[nH]cnc21)Nc1ccc(C(=O)[O-])cc1.[K+] [Neotrofin]
mRNA levels of neurotrophic factors (NGF, TGF beta, S100B) in the central nervous system [3]: elevated the mRNA levels of various neurotrophic factors
